From publication PMC6414029, “Utilisation of the Prestwick Chemical Library to identify drugs that inhibit the growth of mycobacteria” (PLoS ONE, 2019)
pIC50: −log10 of the molar value. In brackets after ≈: the same amount, converted by molar mass. Counter-ions that a name gives are not always drawn. Like-named read-outs stand apart in the source and are kept apart here.

Tests used:
HepG2 cells = assay: HepG2 cytotoxicity assay (CellTitre-Glo); type: cell-based
Description: Actively growing HepG2 cells were removed from a T-175 tissue culture flask with 5 mL of Eagle’s MEM containing 10% FBS/1%NEAA/1% Penicillin and Streptomycin) and mixed with gentle pipetting. […] The cell suspension was added to 250 mL of the same medium at a final density of […]. […] Plates were allowed to incubate at 37°C at a relative humidity of 80% and 5% CO2 for 48 hours. After incubation, the plates were allowed to equilibrate at room temperature for 30 mins before 25 μL of CellTitre-Glo (Promega) reagent was added to each well using a multichannel pipette. Plates were left at room temperature for 30 mins before relative luminescence was read using a BMG Labtech POLARstar Omega plate reader.

M. smegmatis [1] = assay: MIC determination on solid agar; type: cell-based, Mycobacterium smegmatis; conditions: M. smegmatis; for MIC: 7H10 solid agar, absence of colonies, read-out: Solid MIC
Description: Drugs were diluted from a 10mM stock, mixed individually in 2 mLs of molten 7H10 agar and dispensed in square partitioned petri plates. Plates were incubated at 37°C and solid MIC was determined based on absence of colonies.

M. tuberculosis H37Rv = assay: Alamar Blue (resazurin) MIC assay; type: cell-based, Mycobacterium tuberculosis; conditions: liquid growth media
Description: To investigate the effects of repurposed compounds on growth of M. tuberculosis H37Rv using an Alamar Blue based MIC assay using the resazurin reagent. This assay was performed in 7H9 medium containing Middlebrook broth and 0.5% glycerol and supplemented with oleic acid, albumin, dextrose, and catalase. Clear- 96-well plates were inoculated with 100 μL of drug diluted with 90 μl of 7H9 medium and 10 μL DMSO. Serial 3-fold dilutions of each drug in 100 μL of 7H9 medium were prepared at various ranges. Growth controls containing no antibiotic and sterility controls without inoculation were also included. 200 μL of sterile deionized water was added to the outer perimeter wells to prevent evaporation during plate incubation. Plates were incubated plate at 37°C for 3–4 days. After incubation, the plates were removed and 10 μL of resazurin (0.02% w/v) was added to each well that contained bacteria. Assay plates were reincubated at 37°C for 24–48 hours and visually assessed for colour development. OD 570 nm readings were taken to provide further quantitation provide an interpretation of the dose response of the bacterium to repurposed compounds.

M. smegmatis [2] = assay: microbe, parasite or virus in culture; type: cell-based, Mycobacterium smegmatis; conditions: liquid medium
BCG [3] = assay: microbe, parasite or virus in culture; type: cell-based, Mycobacterium bovis BCG; conditions: for MIC: Mycobacterium tuberculosis variant bovis BCG
BCG [4] = assay: microbe, parasite or virus in culture; type: cell-based, Mycobacterium bovis BCG; conditions: for MIC: Mycobacterium tuberculosis variant bovis BCG, BCG, read-out: Liquid MIC
BCG [5] = type: cell-based, Mycobacterium bovis BCG
[6] = tested on: BCG over-expressing EchA12; assay: microbe, parasite or virus in culture; type: cell-based, Mycobacterium bovis BCG
M. smegmatis [7] = type: cell-based, Mycobacterium smegmatis; conditions: 20 μM compound, 48 hr read, GFP fluorescence
BCG over-expressing AroB = assay: microbe, parasite or virus in culture; type: cell-based, Mycobacterium bovis BCG
[8] = read-out: Solid MIC, BCG, 7H10 solid agar, absence of colonies
[9] = read-out: Solid MIC, BCG, solid agar, values given in mM

**Q.** Which results are given for `CC(=O)OC[C@H]1O[C@@H]([S-])[C@H](OC(C)=O)[C@@H](OC(C)=O)[C@@H]1OC(C)=O.CCP(CC)CC.[Au+]` [Auranofin]?
**A.** pIC50 (HepG2 cells; 48 hours): 5.52; Solid MIC relative to liquid MIC (M. smegmatis [1]): 12 fold; MIC (M. smegmatis [1]): 6.0 µM; MIC (M. tuberculosis H37Rv): 0.27 µM; MIC (M. smegmatis [2]): 0.51 µM

**Q.** Which MIC (BCG [3]; [8]) does the source give for `CN(C)CC/C=C1/c2ccccc2COc2ccc(CC(=O)O)cc21` [Olopatadine] here?
**A.** ≥ 0.5 mM

**Q.** And the MIC (BCG [3]; [9])?
**A.** > 0.5 mM

**Q.** And the “Liquid MIC” value (BCG [4])?
**A.** 202.30 µM

**Q.** And the MIC (BCG [4])?
**A.** 202 µM (≈ 68.3 µg/mL)

**Q.** `O=C(c1ccc(OCCN2CCCCC2)cc1)c1c(-c2ccc(O)cc2)sc2cc(O)ccc12` [Raloxifene] was tested. Which pIC50 (HepG2 cells; 48 hours) did it give?
**A.** 4.70

**Q.** What about the MIC (M. smegmatis [1]) of the same compound?
**A.** 312.5 µM (≈ 148 µg/mL)

**Q.** What about the MIC (M. tuberculosis H37Rv) of the same compound?
**A.** 22.10 µM (≈ 10.5 µg/mL)

**Q.** And the MIC (M. smegmatis [2])?
**A.** 25.7 µM (≈ 12.2 µg/mL)

**Q.** Which results are given for `CC(NCCC(c1ccccc1)c1ccccc1)c1ccccc1` (centres unmarked) [Fendiline hydrochloride]?
**A.** MIC (M. smegmatis [1]; Mycolicibacterium smegmatis): 15.6 µM; MIC (M. smegmatis [2]; Mycolicibacterium smegmatis): 77 to 828 µM; MIC (M. smegmatis [2]): 77.57 µM

**Q.** How did the MIC (BCG [3]; [8]) turn out when `COc1ccc(CCN2CCC(Nc3nc4ccccc4n3Cc3ccc(F)cc3)CC2)cc1` [Astemizole] was run?
**A.** 0.05 mM (≈ 22.9 µg/mL)

**Q.** What about the MIC (BCG [3]; [9]) of the same compound?
**A.** ~0.05 mM (≈ 22.9 µg/mL)

**Q.** And the “Liquid MIC” value (BCG [4])?
**A.** 17.78 µM

**Q.** And the MIC (BCG [4])?
**A.** 17.8 µM (≈ 8.16 µg/mL)

**Q.** `O=C1NCN(c2ccccc2)C12CCN(CCCC(c1ccc(F)cc1)c1ccc(F)cc1)CC2` [Fluspirilene] was tested. Which MIC (M. smegmatis [2]) did it give?
**A.** 827.5 µM (≈ 394 µg/mL)

**Q.** With `NC(=O)c1cnccn1` [pyrazinamide] as the compound, how does the “% survival” value (BCG [5]) read?
**A.** < 25%

**Q.** How did the “Solid MIC relative to liquid MIC” value (BCG [3]) turn out when `CS(=O)(=O)c1ccc([C@@H](O)[C@@H](CF)NC(=O)C(Cl)Cl)cc1` [Florfenicol] was run?
**A.** 5 fold

**Q.** And the “Solid MIC” value (BCG [3]; 7H10 solid agar, absence of colonies, listed as Florfenciol)?
**A.** 6 µM

**Q.** And the MIC (BCG [3]; [8])?
**A.** ~0.005 mM (≈ 1.79 µg/mL)

**Q.** And the “Liquid MIC” value (BCG [4])?
**A.** 0.67 µM

**Q.** What about the MIC (BCG [4]) of the same compound?
**A.** 0.7 µM (≈ 0.251 µg/mL)

**Q.** And the pIC50 (HepG2 cells; Homo sapiens, HepG2, 48 hours)?
**A.** < 3.60

**Q.** What about the MIC (M. tuberculosis H37Rv; Mycobacterium tuberculosis) of the same compound?
**A.** 25.4 µM (≈ 9.1 µg/mL)

**Q.** And the “MIC in the absence of EchA12 over-expression, compared with wild-type BCG” value [6]?
**A.** unchanged

**Q.** And the MIC ([6]; Mycobacterium tuberculosis variant bovis BCG, BCG, read-out: MIC upon over-expression of EchA12)?
**A.** > 12 µM

**Q.** What does the source list for `CC/C(=C(\c1ccccc1)c1ccc(OCCN(C)C)cc1)c1ccccc1` [Tamoxifen citrate]?
**A.** MIC (M. tuberculosis H37Rv; Mycobacterium tuberculosis): ≥ 100 µM; MIC (M. smegmatis [2]): 26.48 µM

**Q.** What does the source list for `CCCCCCCCNC(C)C(O)c1ccc(SC(C)C)cc1` (centres unmarked) [Sulocitidil]?
**A.** MIC (M. smegmatis [1]): 625 µM (≈ 211 µg/mL); MIC (M. smegmatis [2]): 87.22 µM (≈ 29.4 µg/mL)

**Q.** `CC[C@@H](CO)NCCN[C@@H](CC)CO` [ethambutol] was tested. Which “% survival” value (BCG [5]) did it give?
**A.** < 25%

**Q.** What about the “% survival” value (M. smegmatis [7]) of the same compound?
**A.** < 25%

**Q.** How did the MIC (M. smegmatis [1]; Mycolicibacterium smegmatis) turn out when `CN[C@H]1CC[C@@H](c2ccc(Cl)c(Cl)c2)c2ccccc21` [Sertraline] was run?
**A.** 90 µM (≈ 27.6 µg/mL)

**Q.** And the MIC (M. smegmatis [2])?
**A.** 526.7 µM (≈ 161 µg/mL)

**Q.** With `O=c1c2ccccc2[se]n1-c1ccccc1` [Ebselen] as the compound, how does the pIC50 (HepG2 cells; Homo sapiens, HepG2, 48 hours) read?
**A.** 4.35

**Q.** What about the MIC (M. tuberculosis H37Rv; Mycobacterium tuberculosis) of the same compound?
**A.** 18.5 µM (≈ 5.08 µg/mL)

**Q.** And the MIC (M. smegmatis [2]; Mycolicibacterium smegmatis)?
**A.** 10.3 µM (≈ 2.82 µg/mL)

**Q.** How did the MIC (M. smegmatis [1]; Mycolicibacterium smegmatis) turn out when `[H]/N=C(\N/C(=N/[H])NCCCCCCNC(=N)NC(=N)Nc1ccc(Cl)cc1)Nc1ccc(Cl)cc1` [Chlorhexidine] was run?
**A.** 16 µM (≈ 8.09 µg/mL)

**Q.** And the MIC (M. smegmatis [2]; Mycolicibacterium smegmatis)?
**A.** 1.98 µM (≈ 1 µg/mL)

**Q.** What about the MIC (M. smegmatis [2]) of the same compound?
**A.** 1.95 µM (≈ 0.986 µg/mL)

**Q.** Which “Solid MIC relative to liquid MIC” value (BCG [3]) does the source give for `CCCCCCCCCCCCCCCC[N+](C)(C)CCN(Cc1ccc(OC)cc1)c1ncccn1` [Thonzonium, Thonzonium bromide] here?
**A.** 5 fold

**Q.** What about the MIC (BCG [3]; [8]) of the same compound?
**A.** ~0.005 mM

**Q.** And the MIC (BCG [4])?
**A.** 0.16 µM

**Q.** For `Fc1ccc(C(OCCN2CCN(CCCc3ccccc3)CC2)c2ccc(F)cc2)cc1` [GBR 12909, Vanoxerine], which MIC (BCG [3]; [8]) is on record?
**A.** 0.0282 mM (≈ 12.7 µg/mL)

**Q.** And the MIC (BCG [4])?
**A.** 20.5 µM (≈ 9.24 µg/mL)

**Q.** What about the “MIC in the absence of AroB over-expression, compared with wild-type BCG” value (BCG over-expressing AroB) of the same compound?
**A.** unchanged

**Q.** What about the MIC (BCG over-expressing AroB; Mycobacterium tuberculosis variant bovis BCG, BCG, read-out: MIC upon over-expression of AroB) of the same compound?
**A.** > 50 µM

**Q.** What about the pIC50 (HepG2 cells; Homo sapiens, HepG2, 48 hours) of the same compound?
**A.** 4.26

**Q.** What about the MIC (M. smegmatis [1]; Mycolicibacterium smegmatis) of the same compound?
**A.** 62.5 µM (≈ 28.2 µg/mL)

**Q.** And the MIC (M. tuberculosis H37Rv; Mycobacterium tuberculosis)?
**A.** 26.6 µM (≈ 12 µg/mL)

**Q.** And the MIC (M. smegmatis [2]; Mycolicibacterium smegmatis)?
**A.** 18.6 µM (≈ 8.38 µg/mL)
